Legend:
Assay type in all cases: cell-based, human
MALME-3M = assay: NCI five-dose assay; conditions: five dose levels
MDA-MB-468 = assay: NCI five-dose assay; conditions: MDA-MB-468, five dose levels
Ovarian cancer subpanel = assay: NCI five-dose assay, subpanel mean
MCF7 = assay: NCI five-dose assay; conditions: MCF7, five dose levels
SNB-19 = assay: NCI five-dose assay; conditions: SNB-19, five dose levels
HOP-92 = assay: NCI five-dose assay; conditions: HOP-92, five dose levels
SK-MEL-5 = assay: NCI five-dose assay; conditions: SK-MEL-5, five dose levels
Melanoma subpanel = assay: NCI five-dose assay, subpanel mean
KM12 = assay: NCI five-dose assay; conditions: KM12, five dose levels
MOLT-4 = assay: NCI five-dose assay; conditions: MOLT-4, five dose levels
OVCAR-3 = assay: NCI five-dose assay; conditions: OVCAR-3, five dose levels
SN12C = assay: NCI five-dose assay; conditions: five dose levels
OVCAR-8 = assay: NCI five-dose assay; conditions: OVCAR-8, five dose levels
RXF393 = assay: NCI five-dose assay; conditions: RXF393, five dose levels
SK-MEL-28 = assay: NCI five-dose assay; conditions: SK-MEL-28, five dose levels
CNS cancer subpanel = assay: NCI five-dose assay, subpanel mean
UACC-62 = assay: NCI five-dose assay; conditions: UACC-62, five dose levels
PC-3 = assay: NCI five-dose assay; conditions: PC-3, five dose levels
HS 578T = assay: NCI five-dose assay; conditions: five dose levels
UACC-257 = assay: NCI five-dose assay; conditions: UACC-257, five dose levels
A549/ATCC = assay: NCI five-dose assay; conditions: five dose levels
IGROV1 = assay: NCI five-dose assay; conditions: IGROV1, five dose levels
SR = assay: NCI five-dose assay; conditions: five dose levels
HCC-2998 = assay: NCI five-dose assay; conditions: Homo sapiens, HCC-2998, five dose levels
COLO205 = assay: NCI five-dose assay; conditions: COLO205, five dose levels
U251 = assay: NCI five-dose assay; conditions: U251, five dose levels
ACHN = assay: NCI five-dose assay; conditions: five dose levels
[1] = Homo sapiens, read-out: GI50 Conc. per Cell Lines
[2] = Homo sapiens, read-out: LC50 (the source's name)

## O/N=C(\CSc1nnc(-c2c[nH]c3ccccc23)n1-c1ccccc1)c1ccc(Cl)cc1 [Compound 7j, (Z)-2-((5-(1H-Indol-3-yl)-4-phenyl-4H-1,2,4-triazol-3-yl)thio)-1-(4-chlorophenyl) Ethanone Oxime]
MALME-3M; [1]
  GI50: 4.99 µM
MALME-3M; [2]
  CC50: > 100 µM
MALME-3M
  TGI Conc. per Cell Lines: 27.5 µM
MDA-MB-468; Homo sapiens
  LC50: 46 µM
MDA-MB-468; [1]
  GI50: 1.72 µM
MDA-MB-468
  TGI Conc. per Cell Lines: 3.47 µM
Ovarian cancer subpanel; Homo sapiens, Ovarian cancer, average sensitivity of all cell lines of the subpanel, read-out: GI50 Subpanel MID b
  GI50: 3.61 µM
Ovarian cancer subpanel; Ovarian cancer subpanel
  GI50 Selectivity Ratio (MID a/MID b): 1.01
MCF7; Homo sapiens
  LC50: 22.5 µM
MCF7; [1]
  GI50: 3.63 µM
MCF7
  TGI Conc. per Cell Lines: 21.6 µM
SNB-19; [1]
  GI50: 6.89 µM
SNB-19; [2]
  CC50: > 100 µM
SNB-19
  TGI Conc. per Cell Lines: 45.2 µM
HOP-92
  TGI Conc. per Cell Lines: 37.6 µM
HOP-92; [1]
  GI50: 3.84 µM
HOP-92; [2]
  CC50: > 100 µM
SK-MEL-5; [1]
  GI50: 3.87 µM
SK-MEL-5; [2]
  CC50: 38.7 µM
SK-MEL-5
  TGI Conc. per Cell Lines: 19.5 µM
Melanoma subpanel; Homo sapiens, Melanoma, average sensitivity of all cell lines of the subpanel, read-out: GI50 Subpanel MID b
  GI50: 3.42 µM
Melanoma subpanel; Melanoma subpanel
  GI50 Selectivity Ratio (MID a/MID b): 1.06
KM12; [1]
  GI50: 4.72 µM
KM12; [2]
  CC50: > 100 µM
KM12
  TGI Conc. per Cell Lines: >100 µM
MOLT-4; [1]
  GI50: 2.16 µM
MOLT-4; [2]
  CC50: > 100 µM
MOLT-4
  TGI Conc. per Cell Lines: 5.69 µM
OVCAR-3; Homo sapiens
  LC50: > 100 µM
OVCAR-3; [1]
  GI50: 4.58 µM
OVCAR-3
  TGI Conc. per Cell Lines: 32.4 µM
SN12C; [1]
  GI50: 3.79 µM
SN12C; [2]
  CC50: > 100 µM
SN12C
  TGI Conc. per Cell Lines: 16.3 µM
OVCAR-8; [1]
  GI50: 3.72 µM
OVCAR-8; [2]
  CC50: > 100 µM
OVCAR-8
  TGI Conc. per Cell Lines: 15.8 µM
RXF393; Homo sapiens, RXF 393
  LC50 (concentration killing 50% of cells): 46.3 µM
RXF393; Homo sapiens, RXF 393, read-out: GI50 Conc. per Cell Lines
  GI50: 2.22 µM
RXF393
  TGI Conc. per Cell Lines: 6.29 µM
SK-MEL-28; [1]
  GI50: 4.41 µM
SK-MEL-28; [2]
  CC50: 57.7 µM
SK-MEL-28
  TGI Conc. per Cell Lines: >100 µM
CNS cancer subpanel; CNS cancer subpanel
  GI50 Selectivity Ratio (MID a/MID b): 0.763
CNS cancer subpanel; Homo sapiens, CNS cancer, average sensitivity of all cell lines of the subpanel, read-out: GI50 Subpanel MID b
  GI50: 4.78 µM
UACC-62; [1]
  GI50: 2.62 µM
UACC-62; [2]
  CC50: > 100 µM
UACC-62
  TGI Conc. per Cell Lines: 10.1 µM
PC-3; [1]
  GI50: 2.31 µM
PC-3; [2]
  CC50: > 100 µM
PC-3
  TGI Conc. per Cell Lines: 7.29 µM
HS 578T; Homo sapiens
  LC50: > 100 µM
HS 578T; [1]
  GI50: 3.09 µM
HS 578T
  TGI Conc. per Cell Lines: 16.6 µM
UACC-257; [1]
  GI50: 4.67 µM
UACC-257; [2]
  CC50: > 100 µM
UACC-257
  TGI Conc. per Cell Lines: 87.8 µM
A549/ATCC; [1]
  GI50: 3.35 µM
A549/ATCC; [2]
  CC50: > 100 µM
A549/ATCC
  TGI Conc. per Cell Lines: 16.8 µM
IGROV1; Homo sapiens, IGROV-1, read-out: GI50 Conc. per Cell Lines
  GI50: 5.35 µM
IGROV1; Homo sapiens, IGROV-1, read-out: LC50 (the source's name)
  CC50: > 100 µM
IGROV1
  TGI Conc. per Cell Lines: 19.8 µM
SR; [1]
  GI50: 4.74 µM
SR; [2]
  CC50: > 100 µM
SR
  TGI Conc. per Cell Lines: >100 µM
HCC-2998; read-out: GI50 Conc. per Cell Lines
  GI50: 4.74 µM
HCC-2998; read-out: LC50 (the source's name)
  CC50: > 100 µM
COLO205
  TGI Conc. per Cell Lines: 25.9 µM
COLO205; Homo sapiens, COLO 205, read-out: GI50 Conc. per Cell Lines
  GI50: 4.47 µM
COLO205; Homo sapiens, COLO 205, read-out: LC50 (the source's name)
  CC50: > 100 µM
U251; Homo sapiens, U-251, read-out: GI50 Conc. per Cell Lines
  GI50: 4.73 µM
U251; Homo sapiens, U-251, read-out: LC50 (the source's name)
  CC50: 46.9 µM
U251
  TGI Conc. per Cell Lines: 81.2 µM
ACHN; Homo sapiens
  LC50: > 100 µM
ACHN; [1]
  GI50: 3.69 µM
ACHN
  TGI Conc. per Cell Lines: 14.5 µM
